Biological target: T1, human S1P1 receptor (Homo sapiens, UniProt P21453)
T1 construct: expressed in transfected cells; membranes were used
Assay: GTP γ35S binding assay for S1P1 activity
Format: biochemical
Settings: membranes of cells stably expressing S1P1 receptor, agonist potency
Description: Compounds were synthesized and tested for S1P1 activity using the GTP γ^355 binding assay. These compounds may be assessed for their ability to activate or block activation of the human S1P1 receptor in cells stably expressing the S1P1 receptor.
GTP γ^355 binding was measured in the medium containing (mM) HEPES 25, pH 7.4, MgCl2 10, NaCl 100, dithiothreitol 0.5, digitonin 0.003%, 0.2 nM GTP γ^355, and 5 μg membrane protein in a volume of 150 μl. Test compounds were included in the concentration range from 0.08 to 5,000 nM unless indicated otherwise. Membranes were incubated with 100 μM 5′-adenylylimidodiphosphate for 30 min, and subsequently with 10 μM GDP for 10 min on ice. Drug solutions and membrane were mixed, and then reactions were initiated by adding GTP γ^355 and continued for 30 min at 25° C. Reaction mixtures were filtered over Whatman GF/B filters under vacuum, and washed three times with 3 mL of ice-cold buffer (HEPES 25, pH7.4, MgCl2 10 and NaCl 100). Filters were dried and mixed with scintillant, and counted for ^35S activity using a β-counter. Agonist-induced GTP γ^355 binding was obtained by subtracting that in the absence of agonist. Binding data were analyzed using a non-linear regression method. In case of antagonist assay, the reaction mixture contained 10 nM […] in the presence of test antagonist at concentrations ranging from 0.08 to 5000 nM.

T1 sequence (P21453 whole entry): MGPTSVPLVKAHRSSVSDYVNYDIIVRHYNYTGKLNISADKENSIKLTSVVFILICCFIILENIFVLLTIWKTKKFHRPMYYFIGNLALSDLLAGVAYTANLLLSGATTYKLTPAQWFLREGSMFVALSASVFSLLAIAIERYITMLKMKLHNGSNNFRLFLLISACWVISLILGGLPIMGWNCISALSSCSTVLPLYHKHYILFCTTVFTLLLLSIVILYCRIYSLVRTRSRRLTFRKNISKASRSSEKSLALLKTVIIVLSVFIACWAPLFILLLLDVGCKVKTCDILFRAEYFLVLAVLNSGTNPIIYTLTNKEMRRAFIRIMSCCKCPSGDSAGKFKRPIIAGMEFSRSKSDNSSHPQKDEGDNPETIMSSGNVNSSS

Point of comparison: `O=P(O)(O)CCCNCc1ccc(-c2noc(CCCCCc3ccccc3)n2)c2cccnc12` [Compound 3, {3-[({5-[5-(5-Phenylpentyl)-1,2,4-oxadiazol-3-yl]quinolin-8-yl}methyl)amino]propyl}phosphonic acid], EC50 0.0467 µM. Against it:
- O=P(O)(O)CCCNCc1ccc(-c2noc(CCCCc3ccccc3)n2)c2cccnc12 [Compound 1, {3-[({5-[5-(4-Phenylbutyl)-1,2,4-oxadiazol-3-yl]quinolin-8-yl}methyl)amino]propyl}phosphonic acid] — 13-fold lower, 0.00352 µM
- O=P(O)(O)CCCNCc1ccc(-c2noc(CCCc3ccccc3)n2)c2cccnc12 [Compound 2, {3-[({5-[5-(3-Phenylpropyl)-1,2,4-oxadiazol-3-yl]quinolin-8-yl}methyl)amino]propyl}phosphonic acid] — 4.7-fold lower, 0.00987 µM
- O=P(O)(O)CCCNCc1ccc(-c2noc(CCCCc3ccccc3)n2)c2ccccc12 [Compound 4, {3-[({4-[5-(4-Phenylbutyl)-1,2,4-oxadiazol-3-yl]-1-naphthyl}methyl)amino]propyl}phosphonic acid] — 1.9-fold lower, 0.0249 µM
- O=P(O)(O)OCCNCc1ccc(-c2noc(CCCCc3ccccc3)n2)c2ccccc12 [Compound 6, 2-[({4-[5-(4-Phenylbutyl)-1,2,4-oxadiazol-3-yl]-1-naphthyl}methyl)amino]ethyl dihydrogen phosphate] — 2.1-fold lower, 0.0224 µM

Reference: US8957051B2, “Bicyclic 1, 2, 4-oxadiazoles derivatives as sphingosine-1 phosphate receptors modulators” (Allergan, Inc., priority 2012, dated 2015)
